{
  "source": "paper PMC9847679",
  "about": "“The anti-breast cancer stem cell properties of gold(I)-non-steroidal anti-inflammatory drug complexes” (Chemical Science, 2022)",
  "key": {"[1]": {"test_system": "murine 4T1 triple-negative breast cancer model", "assay": "Antitumour efficacy in murine 4T1 triple-negative breast cancer model", "format": "in vivo, BALB/c mice", "description": "Mice. Female, 5-week-old BALB/c mice were purchased from Charles River Laboratories (Wilmington, MA). All mice were quarantined for one week before use and kept in micro - isolator cages (four mice per cage) in a temperature - and humidity-controlled environment a s per the Division of Laboratory Animal Research (DLAR) of University of Kentucky. All mice were maintained in a pathogen-free environment under the care of DLAR of University of Kentucky. Our study was performed in compliance with the NIH guidelines (NIH Publication No. 85-23 Rev. 1985) for the care and use of laboratory animals and all experimental procedures were monitored and approved by the Institutional Animal Care and Use Committee (IACUC) of University of Kentucky (USA).\nIn vivo studies with 1. Ten female BALB/c mice (5 weeks) were received from Charles River Laboratories (Wilmington, MA). […]\nbeing implanted with 4T1 cells (1 million) subcutaneously on their right flank. Three days post-implantation, the mice were administered with 10 mg/kg of 1 intraperitoneally (IP), 0.1 mL/mouse formulated as 1% DMSO, 10% Kolliphor, and 89% PBS. The control group was injected with a PBS solution containing 1% DMSO and […]. The injection of 1, and […]\ntumour-size and body-weight measurements were performed three days a week, and the mice were euthanised after 16 days (n = 5 for 1 and n = 5 for vehicle control). […]\n(§1) Hematoxylin and eosin staining. The mice used in the in vivo comparative experiment of 1 and the vehicle control were sacrificed at day 16 post tumo ur cells (4T1) injection. The tissues (liver, kidney, and tumour) were fixed in freshly prepared paraformaldehyde (4% in PBS) for 24 h and processed for paraffin sectioning. Tissue sections of 5 µm were stained with hematoxylin and eosin and used for histological examination. A total of 3 sections per tissue (spanning the full depth of the tissue) were examined and photographed using a Nikon"}, "HMLER-shEcad cells": {"test_system": "HMLER-shEcad cells", "assay": "Mammosphere formation assay", "format": "cell-based, human", "settings": "at IC20 value, single cell suspensions, 5 days incubation", "description": "media. The final concentration of DMSO in each well was ≤1 %. After 72 h, 20 μl of MTT (4 mg mL-1 in PBS) was added to each well and the plates incubated for an additional 4 h at 37 °C. The media/MTT mixture was eliminated and DMSO (100 μl per well) was added to dissolve the formazan precipitates. The optical density was measured at 550 nm using a 96-well multiscanner autoreader. Absorbance values were normalised to (DMSO-containing) control wells and plotted as concentration of test compound versus % cell viability. IC50 values were interpolated from the resulting dose dependent curves. The reported IC50 values are the average of three independent experiments (n = 18).\nTumorsphere Formation and Viability Assay. […] Mammospheres treated with 1-3, 5-fluorouracil, capecitabine, cisplatin, carboplatin, and salinomycin (at their respective IC20 values, 5 days) were counted and imaged using an inverted microscope. The viability of the mammospheres was determined by addition of a resazurin-based reagent, TOX8 (Sigma). After incubation for 16 h, the fluorescence of the solutions was read at 590 nm (λex = 560 nm). […] Fluorescence values were normalised to DMSO-containing controls and plotted as concentration of test compound versus % mammospheres viability. […]\nCellular Uptake. […] The number of cells was counted at this stage, using a haemocytometer. […] Gold levels are expressed as mass of Au (ng) per million cells. […]"}, "[2]": {"test_system": "HMLER-shEcad mammospheres", "assay": "Mammosphere viability assay (TOX8)", "format": "cell-based, human", "settings": "5 days incubation", "protocol": "in ultralow-attachment 96-well plates (Corning) and incubated in MEGM supplemented with B27 (Invitrogen), 20 ng mL-1 EGF and 4 μg mL-1 heparin (Sigma) for 5 days. […] The viability of the mammospheres was determined by addition of a resazurin-based reagent, TOX8 (Sigma). After incubation for 16 h, the fluorescence of the solutions was read at 590 nm (λex = 560 nm). Viable mammospheres reduce the amount of the oxidised TOX8 form (blue) and concurrently increase the amount of the fluorescent TOX8 intermediate (red), indicating the degree of mammosphere cytotoxicity caused by the test compound. Fluorescence values were normalised to DMSO-containing controls and plotted as concentration of test compound versus % mammospheres viability. IC50 values were interpolated from the resulting dose dependent curves. The reported IC50 values are the average of three independent experiments, each consisting of two replicates per concentration level (overall n = 6)."}, "[3]": {"assay": "Tissue biodistribution of gold", "format": "in vivo, BALB/c mice", "settings": "4T1-bearing mice after 16 days treatment, 10 mg kg−1 IP", "description": "tumour-size and body-weight measurements were performed three days a week, and the mice were euthanised after 16 days (n = 5 for 1 and n = 5 for vehicle control).\nTissue biodistribution of 1. Following the treatment o f mice with 1 for 16 days, each tissue (heart, lung, liver, spleen, kidney, and tumo ur) was excised from euthanised mice (n = 3).\nThe tissues were boiled for 5 h at 60 °C with 70% nitric acid (0.5 mL) , and then boiled again at 60 °C for 10 min with 35% hydrogen peroxide (0.5 mL). The solutions turned yellow, and were diluted as needed to measure the gold content using a Graphite Furnace Atomic Absorption Spectrometer. Before measuring all samples, th e standard solution curves were […]\nas §1"}, "[4]": {"settings": "10 mg kg−1 intraperitoneally three times a week, 16 days, vs vehicle"}, "[5]": {"settings": "day 16, compared to control group"}},
  "data": [
    {"compound": "COc1ccc2c(c1)c(CC(=O)[O][Au][PH](c1ccccc1)(c1ccccc1)c1ccccc1)c(C)n2C(=O)c1ccc(Cl)cc1", "note": "[complex 1]", "values": [
      {"measurement": "body weight", "setting": "[1]; [4]", "result": "maintained their body weight"},
      {"measurement": "tumour growth", "setting": "[1]; [4]", "result": "significant tumour growth inhibition"},
      {"measurement": "cellularity in kidney or liver tissue (H&E histology)", "setting": "[1]; [5]", "result": "no alteration to cellularity"},
      {"measurement": "cellularity in tumour tissue (H&E histology)", "setting": "[1]; [5]", "result": "Reduced cellularity"},
      {"measurement": "number and size of mammospheres formed", "setting": "HMLER-shEcad cells", "result": "greatest inhibitory effect"},
      {"measurement": "IC50", "setting": "[2]", "result": "2000 ± 100", "unit": "nM"},
      {"measurement": "gold content in the kidney", "setting": "[3]", "result": "15 μg g^−1 of tissue"},
      {"measurement": "gold content in tumour tissue", "setting": "[3]", "result": "3 μg g^−1 of tissue"}
    ]}
  ]
}
